For assay [1], the system named is E1A-transformed wild-type (WT) and caspase 8-/- MEFs. Put plainly: MTS viability of wild-type and caspase 8-/- MEFs in suspension conditions. It counts as cell-based. The following applies: ten hours. The procedure: FIG. 15. 5809354 sensitizes cells to anoikis through a caspase 8 dependent mechanism. (A) PPC-1 cells (5×10^4) were cultured under suspension conditions overnight and then treated with 5809354 in the presence or absence of the pan-caspase inhibitor z-VAD-fink (100 μM). Thirty hours after incubation, anoikis was determined by flow cytometry to detect cell surface annexin V expression and PI uptake. Data represents the mean±SEM percent of viable cells or colonies compared to untreated controls. (B) PPC-1 cells (5×10^4) were cultured in suspension conditions overnight and then treated with 5809354 (60 μM). At increasing times after treatment, caspase activation was detected with FITC-labeled peptides that bind preferentially and irreversibly to caspase 3/7, 8, or 9. Caspase activation was monitored by flow cytometry to quantify the percentage of fluorescently labeled cells. […] At increasing times after incubation, total cellular protein was isolated and analyzed by SDS-PAGE immunoblotting using anti-caspase 8 and anti-actin antibodies. * indicates cleaved caspase 8. […] Thirty hours after incubation, apoptosis was measured by cell surface annexin V expression and PI uptake. […] Ten hours after incubation, cell viability was measured using the MTS assay. […] EGFP expression and nuclear morphology were analyzed by fluorescence microscopy. […]

Assay [2] deals with PC-3, DU-145, LNCaP, T47D, MB-MDA-468 and OVCAR-3 cells. Briefly: Anoikis of additional malignant cell lines: colony formation after suspension culture. It counts as cell-based. The procedure:
FIG. 14. Tumor cell sensitivity to anoikis correlates with sensitivity to Fas-mediated apoptosis. PC-3, DU-145, and LNCaP prostate, T47D and MB-MDA-468 breast, and OVCAR-3 ovarian cancer cells were cultured under adherent conditions with increasing concentrations of 5809354, in the presence or absence of Fas-activating antibody (CH-11, 100 ng/mL). Thirty hours after incubation, cell viability was determined using the MTS assay. Cell lines were also cultured under suspension conditions in the presence or absence of 5809354. Thirty hours after incubation, equal volumes of suspension-cultured cells were replated in a colony formation assay. Data represents the mean±SEM percent of viable cells or colonies compared to untreated controls.
Cell viability apoptosis, colony formation, and caspase activation assays. Cell viability was assessed using the MTS reduction assay (Promega, Madison, Wis., USA) according to the manufacturer's protocols and as described in Schimmer et al. (2006). Apoptosis was measured by flow cytometry to detect cell surface annexin V expression and propidium iodide (PI) uptake (Biovision, Mountain View, Calif., USA) as described in Carter et al. (2005). […] Clonogenic growth after suspension culture was measured using colony formation assays. […] Colonies were fixed, stained with methylene blue, and counted. […]

Turning to “4-(4-chloro-2-methylphenoxy)-N-hydroxybutanamide [compound 5809354]”, the “anoikis of caspase 8-deficient MEFs compared to wild-type” value in assay [1] is recorded as “resistant”. Moreover, the sensitization to anoikis entry in assay [2] (LNCaP or MB-MDA-468 cells) was “did not sensitize”; in assay [2] (PC-3 and DU-145 prostate, T47D breast and OVCAR-3 ovarian cancer cell lines), “sensitized”.

Source of the values: patent US8008354B2, “Death receptor sensitizing compounds and methods of use therefor” (Burnham Institute for Medical Research, priority 2006, dated 2011).
